Results from US11576383B2, “Pesticide composition containing thidiazuron and polyglutamic acid” (JIANGSU HUIFENG BIO AGRICULTURE CO., LTD., priority 2017, dated 2023).

Tests used:
Assay type in all cases: in vivo
maize = experiment: Field comprehensive test of mixing thidiazuron and polyglutamic acid on growth regulation and production increase of maize; details: 40 a.i. mg/kg
Experimental: (§1) Thidiazuron and polyglutamic acid were diluted with acetone according to a certain concentration and were sprayed to stems and leaves of crops, and influence of concentrations on growth of crops is assayed in the field, including comprehensive evaluation on plant height, spike number, setting percentage, disease-resistant condition, yield condition and the like of the crops. Plant height control rate=(plant height of a clean water control group-processed plant height)/plant height of the clean water control group*100% Spike number increase ratio=(processed plant spike number-plant spike number of a clean water control group)/plant spike number of the clean water control group*100% Setting percentage=filled grain number per spike/total grain number per spike*100% Prevention effect=(disease index of a clean water control group-processed disease index)/disease index of the clean water control group*100% Yield per mu increase ratio=(processed yield per mu-yield per mu of a clean water control group)/yield per mu of the clean water control group*100%
(§2) 1. Field Comprehensive Test of Mixing Thidiazuron and Polyglutamic Acid on Growth Regulation and Disease Resistance and Production Increase of Maize Crops
(§3) Sorghum variety: Suyu 23.
Pesticide application stage: a big horn stage of maize and a blooming stage of maize in which diseases such as Southern corn leaf blight are prone to occur.
Pesticide application number of times: 2 times, 6 days asan interval. The examples of the preparation of the present invention are sprayed for three repeated times, and the result is the mean value.

[1] = system: Southern corn leaf blight; experiment: Prevention of Southern corn leaf blight in the maize field comprehensive test; details: 40 a.i. mg/kg
Experimental: as §1, §2, §3
Pesticide application stage: a big horn stage of maize and a blooming stage of maize in which diseases such as Southern corn leaf blight are prone to occur. […]

[2] = system: banded sclerotial blight of indica; experiment: Disease control of banded sclerotial blight in the indica comprehensive assay; details: 50 a.i. mg/kg
Experimental: (§4) 1. Comprehensive Assay Test of Compounding Thidiazuron and Polyglutamic Acid on Growth Regulation of Indica
as §1

indica = experiment: Comprehensive assay of compounding thidiazuron and polyglutamic acid on growth regulation of indica (field, stem and leaf spraying); details: 50 a.i. mg/kg
Experimental: as §4, §1

O=C(Nc1ccccc1)Nc1cnns1 [Thidiazuron]
Stem Diameter (maize): 2.50 cm | Thousand seed weight (maize): 249.0 g | Plant Height (maize; applied 2 times, 6 days interval, mean of three repeats): 129.0 cm | Control Rate (plant height) (maize; vs clean water control group): 5.4% | Increase Ratio (output, unit yield per mu) (maize; vs clean water control group): 6.1% | Increase Ratio (stem diameter) (maize; vs clean water control group): 5.4% | Increase Ratio (thousand seed weight) (maize; vs clean water control group): 5.4% | Output (maize; yield per mu): 637.9 667M^2 | Southern corn leaf blight ([1]; disease index): 14.74 | Prevention Effect ([1]; Southern corn leaf blight, vs clean water control group): 51.11% | Prevention Effect ([2]; banded sclerotial blight of indica, vs clean water control group): 49.8% | Disease Index of Banded Sclerotial Blight ([2]; indica): 14.8 | Spike Number of Single Plant (indica): 18.1 grains | Total Grain Number of Spike (indica): 145.7 grains | filled grain number per spike (indica): 132.2 grains | Setting Percentage (indica; filled grain number per spike/total grain number per spike): 90.7% | Plant Height (indica; stem and leaf spraying 2 times, 8 days interval, investigated at later grouting stage): 121.2 cm | Plant Height Control Rate (indica; vs clean water control group): 5.0% | Production Increase Ratio (yield per mu increase ratio) (indica; vs clean water control group): 5.5% | Spike Number Increase Ratio (indica; vs clean water control group): 4.0% | Output (indica; yield per mu): 537.5 667 M^2
